In US20220315554A1, “COMPOUNDS COMPRISING A […] LIGAND AND USE THEREOF” (priority 2019, published 2022):
Numbered stars: 1 amine (or outer) side, 2 acyl side, 3 side chain; on linkers, the order of the positions; unused ones are H or OH. Bridge positions count the residues as written; N and C are the ends. Square brackets hold non-standard residues; d marks the D form. Peptide text beside a SMILES is read from it. * marks the point of attachment. ξ: configuration not given here. TBMB(SCH2CH2NH-DOTA) = O=C(O)CN1CCN(CC(=O)O)CCN(CC(=O)NCCSCc2cc(C[*:1])cc(C[*:2])c2)CCN(CC(=O)O)CC1; X3 = NC(=O)[C@H](CCCCNC(=O)CN1CCN(CC(=O)O)CCN(CC(=O)O)CCN(CC(=O)O)CC1)NC(=O)CCC(=O)NCCCOCCOCCOCCCN*; X4 = O=C1CN2CCN3CCN(CC(=O)N4CCN(Cc5cc(C[*:1])cc(C[*:2])c5)CC4)CCN(CC2)CC(=O)[O][In]([O]1)[O]C(=O)C3; X2 = O=C(O)CN1CCN(CC(=O)O)CCN(CC(=O)NCCCOCCOCCOCCCN*)CCN(CC(=O)O)CC1; mXylylene = c1cc(C[*:1])cc(C[*:2])c1; NMeF = CN[C@@H](Cc1ccccc1)C(=O)O; Suc = O=C(CCC(=O)[*:2])[*:1]; 4Amb = NCc1ccc(C(=O)O)cc1; Nle = CCCC[C@H](N)C(=O)O; Hexanoyl = CCCCCC(=O)*; ξD = NC(CC(=O)O)C(=O)O

Assays:
Human recombinant FAP [1] = target: T1, Human recombinant FAP (Homo sapiens, UniProt Q12884); assay: Surface plasmon resonance (Biacore) assay; format: binding
T1 sequence (Q12884 1-760): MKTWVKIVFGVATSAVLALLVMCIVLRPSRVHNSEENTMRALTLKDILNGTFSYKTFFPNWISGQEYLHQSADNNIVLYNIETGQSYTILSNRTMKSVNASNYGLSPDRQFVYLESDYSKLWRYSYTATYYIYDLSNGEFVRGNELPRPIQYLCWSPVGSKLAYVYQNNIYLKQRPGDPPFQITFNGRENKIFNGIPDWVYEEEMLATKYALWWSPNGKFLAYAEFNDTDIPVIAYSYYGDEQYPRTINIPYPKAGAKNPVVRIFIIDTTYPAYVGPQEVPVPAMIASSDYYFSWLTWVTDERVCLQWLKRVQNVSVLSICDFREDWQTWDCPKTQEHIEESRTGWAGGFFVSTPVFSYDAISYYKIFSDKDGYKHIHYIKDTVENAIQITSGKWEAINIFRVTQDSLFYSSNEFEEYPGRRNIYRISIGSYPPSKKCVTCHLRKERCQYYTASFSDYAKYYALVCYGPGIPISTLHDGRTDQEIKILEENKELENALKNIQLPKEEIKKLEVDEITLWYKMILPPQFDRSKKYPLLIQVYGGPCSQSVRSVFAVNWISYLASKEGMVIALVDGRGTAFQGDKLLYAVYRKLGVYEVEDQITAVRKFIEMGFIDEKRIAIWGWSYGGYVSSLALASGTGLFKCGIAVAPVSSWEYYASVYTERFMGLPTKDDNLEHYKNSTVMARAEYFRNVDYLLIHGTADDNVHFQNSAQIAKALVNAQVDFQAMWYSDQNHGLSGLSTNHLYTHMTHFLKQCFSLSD

Human recombinant FAP [2] = target: T1, Human recombinant FAP; assay: FRET-based FAP protease activity assay; format: biochemical; design: purchased R&D systems 3715-SE; details: pIC50 Category (Activity), recombinant human FAP, FRET substrate, 37° C.
Recombinant human DPP4 = target: T2, Recombinant human DPP4 (Homo sapiens, UniProt P27487); assay: DPP4 protease activity assay; format: biochemical
T2 construct: purchased R&D systems 9168-SE
T2 sequence (P27487 whole entry): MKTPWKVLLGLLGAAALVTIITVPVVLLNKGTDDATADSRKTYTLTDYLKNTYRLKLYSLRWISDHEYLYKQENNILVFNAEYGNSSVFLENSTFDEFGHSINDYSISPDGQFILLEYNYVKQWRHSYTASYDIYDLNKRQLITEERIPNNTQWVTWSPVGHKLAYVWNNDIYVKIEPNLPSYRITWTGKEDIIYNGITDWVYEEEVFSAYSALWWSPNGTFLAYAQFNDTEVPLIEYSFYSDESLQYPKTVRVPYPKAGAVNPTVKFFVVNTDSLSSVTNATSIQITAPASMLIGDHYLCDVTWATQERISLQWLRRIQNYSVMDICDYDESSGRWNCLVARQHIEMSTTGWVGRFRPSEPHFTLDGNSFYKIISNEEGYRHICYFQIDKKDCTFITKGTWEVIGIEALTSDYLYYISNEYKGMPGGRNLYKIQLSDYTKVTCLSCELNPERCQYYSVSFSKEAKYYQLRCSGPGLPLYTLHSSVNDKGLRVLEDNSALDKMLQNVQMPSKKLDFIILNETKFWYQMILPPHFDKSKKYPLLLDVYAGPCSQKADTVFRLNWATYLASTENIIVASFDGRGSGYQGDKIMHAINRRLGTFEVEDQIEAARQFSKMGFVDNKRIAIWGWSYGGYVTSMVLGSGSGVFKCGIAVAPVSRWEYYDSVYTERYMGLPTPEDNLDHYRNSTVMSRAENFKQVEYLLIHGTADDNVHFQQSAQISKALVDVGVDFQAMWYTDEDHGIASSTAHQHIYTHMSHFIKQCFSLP

[3] = target: T3, FAP-expressing human WI-38 fibroblasts (Homo sapiens, UniProt Q12884); assay: Competitive FACS binding assay; details: pIC50 Category (FACS), competition with 3 nM Cy5-labeled compound, WI-38 fibroblasts, 4° C., 1 hour
T3 construct: FAP-expressing human WI-38 fibroblasts (ECACC) were cultured in EMEM; host or cells: WI-38 human fibroblasts
T3 sequence (Q12884 1-760): T1 sequence (Q12884 1-760)
Method: Cells were analyzed in an Attune NxT flow cytometer. […]

recombinant human PREP = target: T4, recombinant human PREP (Homo sapiens, UniProt P48147); assay: PREP protease activity assay; format: biochemical
T4 construct: purchased R&D systems 4308-SE
T4 sequence (P48147 1-710): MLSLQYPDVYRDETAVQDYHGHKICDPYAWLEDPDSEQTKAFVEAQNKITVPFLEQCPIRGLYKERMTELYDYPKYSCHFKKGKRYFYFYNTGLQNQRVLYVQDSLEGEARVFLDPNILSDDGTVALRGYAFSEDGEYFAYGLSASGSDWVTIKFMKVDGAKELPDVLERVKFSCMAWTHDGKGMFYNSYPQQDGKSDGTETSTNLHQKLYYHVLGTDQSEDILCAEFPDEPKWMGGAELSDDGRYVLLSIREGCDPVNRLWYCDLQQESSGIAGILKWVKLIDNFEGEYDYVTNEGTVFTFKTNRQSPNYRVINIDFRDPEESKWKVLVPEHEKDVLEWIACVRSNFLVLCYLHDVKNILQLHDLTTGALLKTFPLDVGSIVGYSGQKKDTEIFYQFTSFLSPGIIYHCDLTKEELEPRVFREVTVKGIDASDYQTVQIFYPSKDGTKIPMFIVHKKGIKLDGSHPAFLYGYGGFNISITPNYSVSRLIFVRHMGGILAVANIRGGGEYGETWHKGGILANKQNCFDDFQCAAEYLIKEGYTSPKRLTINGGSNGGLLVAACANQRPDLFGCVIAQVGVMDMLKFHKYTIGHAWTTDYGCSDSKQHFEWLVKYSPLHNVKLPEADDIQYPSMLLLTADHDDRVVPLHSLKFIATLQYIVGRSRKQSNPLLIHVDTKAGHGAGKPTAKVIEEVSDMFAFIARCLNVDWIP

[4] = Plasma stability assay, mouse plasma; format: in vitro ADME; details: 37° C., read-out: % intact compound remaining after incubation, Mouse plasma; for remaining at 4 h, 9.8 µM: 4 h incubation; for remaining at 24 h, 9.8 µM: 24 h incubation
[5] = Plasma stability assay, human plasma; format: in vitro ADME; details: 24 h incubation, 37° C., read-out: % intact compound remaining after incubation, Human plasma
in vitro = details: rat, plasma

SMILES | Kd (Human recombinant FAP [1]) [nM] | IC50 (Human recombinant FAP [2]) [nM] | IC50 (Recombinant human DPP4) [nM] | IC50 [3] [nM] | IC50 (recombinant human PREP) [nM] | remaining at 4 h, 9.8 µM [4] [%] | remaining at 24 h, 9.8 µM [4] [%] | remaining at 24 h, 9.8 µM [5] [%] | remaining at 24 h, 9.8 µM (in vitro) [%]
CCCCCC(=O)N[C@H]1CSCc2cccc(c2)CSC[C@@H](C(=O)N[C@@H](CC(=O)O)C(=O)N[C@@H](Cc2c[nH]cn2)C(=O)N(C)[C@@H](Cc2ccccc2)C(=O)N[C@@H](CCCNC(=N)N)C(=O)NCCCOCCOCCOCCCNC(=O)CCC(=O)N[C@@H](CCCCNC(=O)CN2CCN(CC(=O)O)CCN(CC(=O)O)CCN(CC(=O)O)CC2)C(N)=O)NC(=O)[C@H](Cc2ccccc2)NC(=O)[C@H](CCC(=O)O)NC(=O)[C@H]([C@@H](C)O)NC(=O)[C@@H]2CCCN2C(=O)[C@@H]2CCCN2C1=O [3BP-3275, Hex-[Cys(3MeBn)-Pro-Pro-Thr-Glu-Phe-Cys]-Asp-His-Nmf-Arg-Ttds-Lys(DOTA)-NH2] (Hexanoyl-CPPTEFCDH[NMeF]R-X3; linker 1-7 via mXylylene) | < 10 | < 10 | > 1000 | < 10 | > 1000 | 94 |  |  | 
CCCC[C@H](NC(=O)CCC(=O)NCCCOCCOCCOCCCNC(=O)CN1CCN(CC(=O)O)CCN(CC(=O)O)CCN(CC(=O)O)CC1)C(=O)N[C@H]1CSCc2cccc(c2)CSC[C@@H](C(N)=O)NC(=O)[C@H](Cc2ccccc2)NC(=O)[C@H](CCC(=O)O)NC(=O)[C@H]([C@@H](C)O)NC(=O)[C@@H]2CCCN2C(=O)[C@@H]2CCCN2C1=O [3BP-3319, DOTA-Ttds-Nle-[Cys(3MeBn)-Pro-Pro-Thr-Glu-Phe-Cys]-NH2] ({X2-Suc}-[Nle]CPPTEFC-NH2; linker 2-8 via mXylylene) | 10 to 79.4 | 10 to 79.4 | > 1000 | 10 to 79.4 | 631 | 100 |  |  | 
CCCC[C@H](NC(=O)CCC(=O)NCCCOCCOCCOCCCNC(=O)CN1CCN(CC(=O)O)CCN(CC(=O)O)CCN(CC(=O)O)CC1)C(=O)N[C@H]1CSCc2cccc(c2)CSC[C@@H](C(=O)NC(CC(=O)O)C(N)=O)NC(=O)[C@H](Cc2ccccc2)NC(=O)[C@H](CCC(=O)O)NC(=O)[C@H]([C@@H](C)O)NC(=O)[C@@H]2CCCN2C(=O)[C@@H]2CCCN2C1=O (stereo partly drawn) [3BP-3320, DOTA-Ttds-Nle-[Cys(3MeBn)-Pro-Pro-Thr-Glu-Phe-Cys]-Asp-NH2] ({X2-Suc}-[Nle]CPPTEFC[ξD]-NH2; linker 2-8 via mXylylene) | < 10 | < 10 | > 1000 | 10 to 79.4 | > 1000 | 75 |  |  | 
CCCC[C@H](NC(=O)CCC(=O)NCCCOCCOCCOCCCNC(=O)CN1CCN(CC(=O)O)CCN(CC(=O)O)CCN(CC(=O)O)CC1)C(=O)N[C@H]1CSCc2cccc(c2)CSC[C@@H](C(=O)N[C@@H](CC(=O)O)C(=O)NCc2ccc(C(=O)N[C@@H](CCCNC(=N)N)C(N)=O)cc2)NC(=O)[C@H](Cc2ccccc2)NC(=O)[C@H](CCC(=O)O)NC(=O)[C@H]([C@@H](C)O)NC(=O)[C@@H]2CCCN2C(=O)[C@@H]2CCCN2C1=O [3BP-3321, DOTA-Ttds-Nle-[Cys(3MeBn)-Pro-Pro-Thr-Glu-Phe-Cys]-Asp-Pamb-Arg-NH2] ({X2-Suc}-[Nle]CPPTEFCD[4Amb]R-NH2; linker 2-8 via mXylylene) | < 10 | < 10 | > 1000 | < 10 | > 1000 | 94 |  |  | 
CCCCCC(=O)N[C@H]1CSCc2cccc(c2)CSC[C@@H](C(=O)N[C@@H](CCCCNC(=O)CN2CCN(CC(=O)O)CCN(CC(=O)O)CCN(CC(=O)O)CC2)CC(=O)O)NC(=O)[C@H](Cc2ccccc2)NC(=O)[C@H](CCC(N)=O)NC(=O)[C@H]([C@@H](C)O)NC(=O)[C@@H]2CCCN2C(=O)[C@@H]2CCCN2C1=O [3BP-3397, Hex-[Cys(3MeBn)-Pro-Pro-Thr-Gln-Phe-Cys]-Bhk(DOTA)-OH] | < 10 | < 10 | > 1000 | < 10 | > 1000 |  | 92 | 100 | 
CCCC[C@H](NC(=O)CCC(=O)NCCCOCCOCCOCCCNC(=O)CN1CCN(CC(=O)O)CCN(CC(=O)O)CCN(CC(=O)O)CC1)C(=O)N[C@H]1CSCc2cccc(c2)CSC[C@@H](C(=O)NCCC(=O)O)NC(=O)[C@H](Cc2ccccc2)NC(=O)[C@H](CCC(N)=O)NC(=O)[C@H]([C@@H](C)O)NC(=O)[C@@H]2CCCN2C(=O)[C@@H]2CCCN2C1=O [3BP-3398, DOTA-Ttds-Nle-[Cys(3MeBn)-Pro-Pro-Thr-Gln-Phe-Cys]-Bal-OH] | < 10 | < 10 | > 1000 | < 10 | > 1000 |  | 94 | 99 | 
CCCCCC(=O)N[C@H]1CSCc2cc(CSCCNC(=O)CN3CCN(CC(=O)O)CCN(CC(=O)O)CCN(CC(=O)O)CC3)cc(c2)CSC[C@@H](C(=O)N[C@@H](CC(=O)O)C(N)=O)NC(=O)[C@H](Cc2ccccc2)NC(=O)[C@H](CCC(N)=O)NC(=O)[C@H]([C@@H](C)O)NC(=O)[C@@H]2CCCN2C(=O)[C@@H]2CCCN2C1=O [3BP-3426, Hex-[Cys(tMeBn(DOTA-AET))-Pro-Pro-Thr-Gln-Phe-Cys]-Asp-NH2] (Hexanoyl-CPPTQFCD-NH2; linker 1-7 via TBMB(SCH2CH2NH-DOTA)) | < 10 | < 10 | > 1000 | < 10 | > 1000 |  | 73 |  | 
CCCCCC(=O)N[C@H]1CSCc2cc(cc(CN3CCN(C(=O)CN4CCN5CCN6CCN(CC4)CC(=O)[O][In]([O]C(=O)C6)[O]C(=O)C5)CC3)c2)CSC[C@@H](C(=O)N[C@@H](CC(=O)O)C(N)=O)NC(=O)[C@H](Cc2ccccc2)NC(=O)[C@H](CCC(N)=O)NC(=O)[C@H]([C@@H](C)O)NC(=O)[C@@H]2CCCN2C(=O)[C@@H]2CCCN2C1=O [3BP-3590, Indium-Complex of Hex-[Cys(tMeBn(DOTA-PP))-Pro-Pro-Thr-Gln-Phe-Cys]-Asp-NH2] (Hexanoyl-CPPTQFCD-NH2; linker 1-7 via X4) | < 10 | < 10 |  | < 10 |  |  | 100 | 94 | 100
